Assay results from patent US7595056B1, “Methods of rejuvenating Leydig cells and enhancing testosterone production in a male subject” (University of Tennessee Research Foundation, priority 2002, dated 2009).
“Also recorded” adds a separate entry of the source.

Assays:
[1] = tested on: Leydig cells; conditions: Leydig cells isolated from 60 days old rats, in vitro; cited from earlier work
[2] = RIA for serum LH, T4, triiodothyronine and testosterone of treated rats; type: in vivo, Brown Norway rat
Source text: Male Brown Norway rats aged 3, 6, 12 (n=8 per group; 3M, 6M, and 12M, respectively), and 18 months (M) (n=32; 18M) were purchased from Harlan (Madison, Wis., United States of America). The 18M rats were divided equally into four groups (n=8 per group). Under deep inhalation anesthesia (METOFANE™; Malincroft Veterinary, Inc., Mundelein, Ill., United States of America), the four groups of 18M rats were implanted subdermally with ALZET™ mini-osmotic pumps (model 2ML4; Alza Corporation, Palo Alto, Calif., United States of America), containing saline (control), LH (24 μg/day; National Hormone and Pituitary Program, Los Angeles, Calif., United States of America), thyroxine (T4; 5 μg/day; Sigma, St. Louis, Mo., United States of America), and LH and T4 (LH+T4; two pumps, 24 […] of T4), respectively, for 4 weeks (to 19 months [19M] of age). These doses of LH (Mendis-Handagama et al., (1998) Tissue Cell 30:64-73) and thyroid hormone (Ariyaratne et al., (2000) Biol. Reprod. 63:1115-1123) were used based on previously published studies. Rats were maintained under conditions of controlled temperature (25° C.) and lighting (14 hour/10 hour light/dark cycle) and were housed individually (one rat per cage). The animals were fed with Agway PROLAB™ rat formula (Agway, Syracuse, N.Y., United States of America) and water ad libitum until they were sacrificed. The animal protocol employed (No. 488) meets the guidelines of the National Institutes of Health and was approved by the University of Tennessee Animal Care and Concerns Committee. […]
Serum LH hormone was quantified using a commercially available rat luteinizing hormone (rLH) kit (Amersham Pharmacia Biotech, Piscataway, N.J., United States of America). […]
The PC SAS software (SAS Institute Inc., Cary, N.C., United States of America) was used to analyze the data. Results are expressed as mean± standard error of the mean (SEM). […]

[3] = tested on: testis of Brown Norway rats; assay: Microscopy and stereology of the testis of aged Brown Norway rats treated 4 weeks with LH, T4 or LH+T4; type: in vivo, Brown Norway rat
Source text: Male Brown Norway rats aged 3, 6, 12 (n=8 per group; 3M, 6M, and 12M, respectively), and 18 months (M) (n=32; 18M) were purchased from Harlan (Madison, Wis., United States of America). The 18M rats were divided equally into four groups (n=8 per group). Under deep inhalation anesthesia (METOFANE™; Malincroft Veterinary, Inc., Mundelein, Ill., United States of America), the four groups of 18M rats were implanted subdermally with ALZET™ mini-osmotic pumps (model 2ML4; Alza Corporation, Palo Alto, Calif., United States of America), containing saline (control), LH (24 μg/day; National Hormone and Pituitary Program, Los Angeles, Calif., United States of America), thyroxine (T4; 5 μg/day; Sigma, St. Louis, Mo., United States of America), and LH and T4 (LH+T4; two pumps, 24 […] of T4), respectively, for 4 weeks (to 19 months [19M] of age). These doses of LH (Mendis-Handagama et al., (1998) Tissue Cell 30:64-73) and thyroid hormone (Ariyaratne et al., (2000) Biol. Reprod. 63:1115-1123) were used based on previously published studies. Rats were maintained under conditions of controlled temperature (25° C.) and lighting (14 hour/10 hour light/dark cycle) and were housed individually (one rat per cage). The animals were fed with Agway PROLAB™ rat formula (Agway, Syracuse, N.Y., United States of America) and water ad libitum until they were sacrificed. The animal protocol employed (No. 488) meets the guidelines of the National Institutes of Health and was approved by the University of Tennessee Animal Care and Concerns Committee.
Pumps were filled with either saline, LH, or T4, and were primed in saline for 3 hours before implantation so that they would deliver their contents immediately on subdermal implantation into the interscapular region. The LH+T4 rats received two pumps each, one containing LH and one containing T4; the other rats received one pump containing either saline, LH, or T4. After 4 weeks of treatment, rats were sacrificed. In addition, implanted pumps were removed and examined to verify that they had delivered their contents as expected.
One testis of each rat in the 3M, 6M, 12M, and 19M age groups was removed, cleaned of fat, and weighed on a Mettler H54 balance to obtain the fresh testis weight. Using the flotation technique (Mendis-Handagama et al., (1988) Am. J. Anat. 181:12-22; Mori & Christensen, (1980) J. Cell. Biol. 84:340-354; and Mendis-Handagama & Ewing, (1990) J. Microsc. (Oxf) 159:73-82), the specific gravity of the fresh testis was determined as described previously (Mori & Christensen, (1980) J. Cell. Biol. 84:340-354 and Mendis-Handagama & Ewing, (1990) J. Microsc. (Oxford) 159:73-82), and the fresh testis volume was calculated by dividing the fresh testis weight by the specific gravity (in metric units, specific gravity equals density). This measurement is required to express Leydig cell numbers per testis, because numerical density is obtained as a number per unit volume of the testis. The testis was then decapsulated, and the entire testis was incubated for 3 hours in the same medium as described previously (Ariyaratne et al., (2000) Biol. Reprod. 63:1115-1123; Mendis-Handagama et al., (1998) Biol. Reprod. 59:351-357; Mendis-Handagama et al., (1990) J. Androl. 11:548-554; Ariyaratne et al., (2000) Biol. Reprod. 63:493-502; and Ariyaratne & Mendis-Handagama, (2000) Biol. Reprod. 62:158-168) to determine the LH-stimulated testosterone-secretory capacity per testis in vitro. Testosterone levels in the incubation medium were measured by RIA using commercially available kits (COAT-A-COUNT™), and the details of the assay are given above (see Laboratory Example 4). Testosterone-secretory capacity per Leydig cell was calculated by dividing the testosterone-secretory capacity per testis by the number of Leydig cells per testis. […]

[4] = tested on: Leydig cells; assay: LH-stimulated testicular steroidogenesis in vitro (testis of treated rats incubated 3 hours, testosterone by RIA); type: in vivo, Brown Norway rat
Source text: Male Brown Norway rats aged 3, 6, 12 (n=8 per group; 3M, 6M, and 12M, respectively), and 18 months (M) (n=32; 18M) were purchased from Harlan (Madison, Wis., United States of America). The 18M rats were divided equally into four groups (n=8 per group). Under deep inhalation anesthesia (METOFANE™; Malincroft Veterinary, Inc., Mundelein, Ill., United States of America), the four groups of 18M rats were implanted subdermally with ALZET™ mini-osmotic pumps (model 2ML4; Alza Corporation, Palo Alto, Calif., United States of America), containing saline (control), LH (24 μg/day; National Hormone and Pituitary Program, Los Angeles, Calif., United States of America), thyroxine (T4; 5 μg/day; Sigma, St. Louis, Mo., United States of America), and LH and T4 (LH+T4; two pumps, 24 […] of T4), respectively, for 4 weeks (to 19 months [19M] of age). […]
One testis of each rat in the 3M, 6M, 12M, and 19M age groups was removed, cleaned of fat, and weighed on a Mettler H54 balance to obtain the fresh testis weight. Using the flotation technique (Mendis-Handagama et al., (1988) Am. J. Anat. 181:12-22; Mori & Christensen, (1980) J. Cell. Biol. 84:340-354; and Mendis-Handagama & Ewing, (1990) J. Microsc. (Oxf) 159:73-82), the specific gravity of the fresh testis was determined as described previously (Mori & Christensen, (1980) J. Cell. Biol. 84:340-354 and Mendis-Handagama & Ewing, (1990) J. Microsc. (Oxford) 159:73-82), and the fresh testis volume was calculated by dividing the fresh testis weight by the specific gravity (in metric units, specific gravity equals density). […] Testosterone levels in the incubation medium were measured by RIA using commercially available kits (COAT-A-COUNT™), and the details of the assay are given above (see Laboratory Example 4). Testosterone-secretory capacity per Leydig cell was calculated by dividing the testosterone-secretory capacity per testis by the number of Leydig cells per testis. […]

[5] = biological target: rat follicle stimulating hormone (FSH) (rat) (UniProt P11962); assay: RIA, rat LH kit (Amersham Pharmacia Biotech); cross-reactivity against rat LH as reference
[6] = biological target: rat adenocorticotropic hormone (ACTH) (rat) (UniProt P01194); assay: as above
Sequence of UniProt P01194 (P01194 124-162 limits assumed): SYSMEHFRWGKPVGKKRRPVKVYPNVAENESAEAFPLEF

[7] = biological target: rat growth hormone (rat) (UniProt P01244); assay: as above
Sequence of UniProt P01244 (P01244 27-216 limits assumed): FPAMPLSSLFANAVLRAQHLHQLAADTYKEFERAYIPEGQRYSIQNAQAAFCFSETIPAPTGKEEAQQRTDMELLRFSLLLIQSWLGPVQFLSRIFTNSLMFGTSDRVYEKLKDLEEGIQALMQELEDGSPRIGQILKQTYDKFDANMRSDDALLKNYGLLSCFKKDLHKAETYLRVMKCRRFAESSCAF

[8] = biological target: rat TSH (rat) (UniProt P11962); assay: as above
[9] = biological target: rat prolactin (rat) (UniProt P01237); assay: as above
Sequence of UniProt P01237 (P01237 30-226 limits assumed): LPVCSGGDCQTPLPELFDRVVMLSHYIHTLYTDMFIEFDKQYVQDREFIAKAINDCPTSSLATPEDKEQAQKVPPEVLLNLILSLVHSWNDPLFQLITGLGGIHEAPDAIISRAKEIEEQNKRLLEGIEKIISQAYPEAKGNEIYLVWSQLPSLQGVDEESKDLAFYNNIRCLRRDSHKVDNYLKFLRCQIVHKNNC

[10] = 19M Brown Norway rats after 4 weeks subdermal osmotic pump (LH 24 μg/day, T4 5 μg/day), mean, n=8

## N[C@@H](Cc1cc(I)c(Oc2ccc(O)c(I)c2)c(I)c1)C(=O)O [T3, L-3,5,3′-triiodothyronine]
[1]
  Effect on testosterone secretion of Leydig cells: increased testosterone secretion of Leydig cells in a dose dependent fashion up to 50 ng
  Minimum effective dose for testosterone production: 25 ng

## N[C@@H](Cc1cc(I)c(Oc2cc(I)c(O)c(I)c2)c(I)c1)C(=O)O [T4, L-3,5,3′,5′-tetraiodothyronine]
[2]; [10]
  Mean Serum Testosterone: 73 ng/dL
[2]; 19M treated rats versus 3M through 12M rats
  Serum LH levels, comparison between groups in words: reduced significantly
[2]; 19M treated rats versus 19M controls and younger rats, P<0.05
  Serum testosterone levels, comparison between groups in words: significantly greater than 19M controls; also recorded: significantly lower than those in 3M through 12M rats; also recorded: not sufficient to upgrade the serum testosterone levels in 19M rats to those of 3M and 6M rats
[3]; [10]
  Average volume of a Leydig cell: 1998 μm^3
  Leydig cell number per Testis: 21.80 10^6
  Volume density of Leydig cells: 2.38%
[3]; 19M treated rats versus 19M control and younger rats, P<0.05
  Absolute volume of Leydig cells per testis, comparison between groups in words: higher values compared to 19M control rats; also recorded: not significantly different from those of 12M rats
[3]; 19M treated rats versus younger rats, P<0.05
  Average volume of a Leydig cell, comparison between groups in words: significantly lower than those in 3M and 6M rats; also recorded: partially effective
[3]; light microscopy, 19M treated rats versus 19M control rats
  Size of Leydig cell profiles in tissue sections: much larger than those in 19M control rats
[3]; per testis, 19M Brown Norway rats after 4 weeks subdermal osmotic pump (LH 24 μg/day, T4 5 μg/day), mean, n=8
  Mean Absolute Volume of Leydig cells: 43.57 mm^3
[4]; 19M treated rats versus younger rats
  LH-stimulated testosterone-secretory capacity per testis and per Leydig cell in vitro, comparison between groups in words: comparable to those in 12M rats
[4]; LH-stimulated, in vitro, 3 hours incubation, testis of 19M rats treated 4 weeks (LH 24 μg/day, T4 5 μg/day), mean, n=8
  Mean Testosterone-Secretory Capacity Per testis: 14,748 ng
[4]; LH-stimulated, in vitro, capacity per testis divided by number of Leydig cells per testis, 19M rats treated 4 weeks
  Mean Testosterone-Secretory Capacity Per Leydig cell: 0.67 pg

## antibody for LH of the commercially available rat luteinizing hormone (rLH) RIA kit (Amersham Pharmacia Biotech)
[5]
  cross-reactivity: < 0.016%
[6]
  cross-reactivity: < 0.00092%
[7]
  cross-reactivity: 0.1%
[8]
  cross-reactivity: 0.66%
[9]
  cross-reactivity: < 0.8%
